Drawing on ChEMBL document CHEMBL1201862, “PubChem BioAssay data set” (2004), this text covers IC50, EC50 and AC50 for six compounds.

Calls of active or inactive are those of the source.

In test [1] the target is Melanin-concentrating hormone receptor 1 (Homo sapiens, UniProt Q99705). The test is described as follows: Late-stage fluorescence-based counterscreen for antagonists of the G-protein coupled receptor 7 (GPR7): cell-based dose response assay to identify antagonists of the melanin-concentrating hormone receptor 1 (MCHR1) Set 5. The class given is functional.
Chain of Melanin-concentrating hormone receptor 1 (Q99705 whole entry): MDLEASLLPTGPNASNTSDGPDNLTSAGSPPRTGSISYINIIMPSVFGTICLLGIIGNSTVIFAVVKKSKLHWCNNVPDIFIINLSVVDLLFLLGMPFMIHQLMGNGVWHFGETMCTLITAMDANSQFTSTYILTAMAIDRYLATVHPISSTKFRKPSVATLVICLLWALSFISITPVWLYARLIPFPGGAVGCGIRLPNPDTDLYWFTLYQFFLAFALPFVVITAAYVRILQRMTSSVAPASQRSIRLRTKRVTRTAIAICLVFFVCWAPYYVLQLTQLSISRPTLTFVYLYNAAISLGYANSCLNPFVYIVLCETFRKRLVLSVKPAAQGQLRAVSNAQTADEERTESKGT
Test [2] addresses T1, Neuropeptides B/W receptor type 1 (Homo sapiens, UniProt P48145).
T1 sequence (P48145 whole entry): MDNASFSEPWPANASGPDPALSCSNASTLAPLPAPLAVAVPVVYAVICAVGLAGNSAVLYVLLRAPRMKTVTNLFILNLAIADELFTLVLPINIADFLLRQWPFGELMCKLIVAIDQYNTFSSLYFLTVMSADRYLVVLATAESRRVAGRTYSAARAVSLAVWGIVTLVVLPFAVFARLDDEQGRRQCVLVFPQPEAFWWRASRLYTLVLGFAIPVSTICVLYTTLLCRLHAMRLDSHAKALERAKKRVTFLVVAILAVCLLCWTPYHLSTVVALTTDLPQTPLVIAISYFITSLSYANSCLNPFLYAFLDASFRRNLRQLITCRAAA
The test is described as follows: GPR7 antagonist potency, late-stage follow-up, cell-based, fluorescence, dose response, set 5 (AID 588566). The class given is functional.

Test [3] is described as follows: inhibitors of intracellular T. cruzi replication, confirmation, NIH3T3 host cells, beta-gal luminescence (AID 2044).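 Further: intracellular parasites grown in NIH/3T3 mouse fibroblasts as host cells; luminescent beta-galactosidase reporter signal from transgenic T. cruzi replicating inside host cells; inhibitors lower the luminescence signal.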 The class given is functional, cell-based.
Test [4] can be described thus: cytotoxicity toward NIH3T3 fibroblasts, dose response, counter-screen, cell-based, ATP luminescence, mouse fibroblasts (AID 2010).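 Further: cells exposed to compound for about 90 hours before reading.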 The format is functional. For orientation: The purpose of a counterscreen is to sort out artefacts and off-target activity.
Test [5] is described as follows: Counterscreen for activators of the function of SWI/SNF related, matrix associated, actin dependent regulator of chromatin, subfamily a, member 2 (SMARCA2, BRM): Luminescence-based cell-based high throughput dose response assay to identify non-selective compounds using the VP16 reporter assay. The format is functional.
The target in test [6] is DNA repair and recombination protein RAD54-like (Homo sapiens, UniProt Q92698). Nature of the test: inhibitors of human RAD54 branch migration, confirmation, biochemical, fluorescence, cherry-picked samples, dose series (AID 651657). The class given is functional.
Chain of DNA repair and recombination protein RAD54-like (Q92698 whole entry): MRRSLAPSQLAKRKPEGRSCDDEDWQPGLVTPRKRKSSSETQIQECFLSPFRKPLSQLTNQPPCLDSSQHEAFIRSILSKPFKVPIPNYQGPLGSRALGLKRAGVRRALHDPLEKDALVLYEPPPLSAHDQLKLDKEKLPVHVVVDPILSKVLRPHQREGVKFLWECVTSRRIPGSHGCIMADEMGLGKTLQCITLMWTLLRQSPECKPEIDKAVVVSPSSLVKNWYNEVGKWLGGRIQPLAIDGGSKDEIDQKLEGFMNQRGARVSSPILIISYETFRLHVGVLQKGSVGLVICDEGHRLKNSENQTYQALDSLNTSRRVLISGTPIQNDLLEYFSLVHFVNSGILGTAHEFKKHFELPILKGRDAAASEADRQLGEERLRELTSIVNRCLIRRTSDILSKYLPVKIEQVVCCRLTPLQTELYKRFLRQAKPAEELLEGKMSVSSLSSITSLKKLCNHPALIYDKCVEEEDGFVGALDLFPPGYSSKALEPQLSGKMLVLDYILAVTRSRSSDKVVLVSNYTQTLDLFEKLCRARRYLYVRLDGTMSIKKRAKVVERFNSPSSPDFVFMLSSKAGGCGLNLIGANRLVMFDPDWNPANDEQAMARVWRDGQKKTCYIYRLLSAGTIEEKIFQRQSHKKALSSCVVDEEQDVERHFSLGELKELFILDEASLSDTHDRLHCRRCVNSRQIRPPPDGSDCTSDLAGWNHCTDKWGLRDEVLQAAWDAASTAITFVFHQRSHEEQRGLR
Test [7] has as its target SWI/SNF-related matrix-associated actin-dependent regulator of chromatin subfamily A member 2 (Homo sapiens, UniProt P51531). The test is described as follows: Luminescence-based cell-based high throughput dose response assay to identify activators of the function of SWI/SNF related, matrix associated, actin dependent regulator of chromatin, subfamily a, member 2 (SMARCA2, BRM). The class given is functional.

Test [8] is described as follows: miR-122 activators in hepatoma reporter cells, dose response, cell-based, Huh7 psiCHECK-miR122, Renilla luciferase, cherry-picked (AID 651956).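 Further: huh7 hepatoma cells stably carrying a psiCHECK-2 miR-122 sensor plasmid; renilla luciferase signal reporting endogenous miR-122 activity after 48 h compound exposure.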 The format is functional.
The nature of test [9]: HEK293T cytotoxicity, dose response, cytotoxicity control for miR-122 modulator project, cell-based, activator set, cherry-pick (AID 720690).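 Further: HEK293T human cells scored for general mammalian cytotoxicity.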 The format is functional.
In test [10] the target is T2, Beta Lactamase (Pseudomonas aeruginosa, UniProt Q932Y6). Nature of the test: VIM-2 inhibitor FRET-based artefact check, dose response, artefact control for selective VIM-2 inhibitor project, biochemical, FRET readout, CCF2 substrate (AID 1926).
T2 sequence (Q932Y6 whole entry): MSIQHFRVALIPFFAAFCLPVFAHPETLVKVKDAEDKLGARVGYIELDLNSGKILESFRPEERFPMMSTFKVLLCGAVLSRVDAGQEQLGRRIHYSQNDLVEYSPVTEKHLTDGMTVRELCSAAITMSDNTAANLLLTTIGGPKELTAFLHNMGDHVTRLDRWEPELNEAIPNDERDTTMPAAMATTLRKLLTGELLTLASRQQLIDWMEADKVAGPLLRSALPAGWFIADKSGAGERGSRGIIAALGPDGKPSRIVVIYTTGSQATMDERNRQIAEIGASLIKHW
Test [11] has as its target T3, Beta-lactamase (Pseudomonas aeruginosa, UniProt Q79MP6). The test is described as follows: IMP-1 metallo-beta-lactamase inhibitors, dose response, selectivity assay for VIM-2 inhibitor project, biochemical, epi-absorbance (AID 1920).
Test [12] concerns the target Beta-lactamase (Salmonella choleraesuis (strain SC-B67), UniProt Q5J463). The test is described as follows: Epi-absorbance-based counterscreen for selective VIM-2 inhibitors: dose response biochemical high throughput screening assay to identify inhibitors of TEM-1 serine-beta-lactamase.
Test [13] has as its target T3, Beta-lactamase. Nature of the test: […] counterscreen for selective VIM-2 inhibitors: dose response biochemical high throughput screening assay to identify inhibitors of IMP-1 metallo-beta-lactamase.
For test [14], the target named is T2, Beta Lactamase. The test is described as follows: VIM-2 metallo-beta-lactamase inhibitor potency, dose response, biochemical, epi-absorbance readout, selective inhibitors (AID 1919).
In test [15] the target is T4, Heat shock factor protein 1 (Mus musculus, UniProt P38532).
T4 sequence (P38532 whole entry): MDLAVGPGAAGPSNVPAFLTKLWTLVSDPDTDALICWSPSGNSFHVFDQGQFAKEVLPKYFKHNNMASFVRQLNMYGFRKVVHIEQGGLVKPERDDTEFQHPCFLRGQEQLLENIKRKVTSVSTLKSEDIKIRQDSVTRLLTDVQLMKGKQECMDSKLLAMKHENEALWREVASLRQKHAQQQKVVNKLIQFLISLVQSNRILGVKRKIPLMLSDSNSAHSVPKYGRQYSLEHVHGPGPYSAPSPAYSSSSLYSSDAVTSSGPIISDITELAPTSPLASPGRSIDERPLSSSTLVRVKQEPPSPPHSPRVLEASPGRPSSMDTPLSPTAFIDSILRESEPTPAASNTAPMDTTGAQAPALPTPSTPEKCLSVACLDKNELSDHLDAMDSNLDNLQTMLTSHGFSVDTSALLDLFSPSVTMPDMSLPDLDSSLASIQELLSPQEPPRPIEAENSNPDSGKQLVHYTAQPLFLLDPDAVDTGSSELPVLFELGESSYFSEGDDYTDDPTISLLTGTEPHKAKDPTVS
The test is described as follows: inhibition of MG132-induced HSE-luciferase signal, confirmation, cell-based, NIH3T3, luminescence, dose retest (AID 2382).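 Further: NIH3T3 fibroblasts with HSF1-driven luciferase reporter stressed by proteasome inhibitor MG132; luminescence from HSF1-driven luciferase expression after 8 hours of MG132 stress.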 The format is functional.

The target of test [16] is T5, Apoptotic protease-activating factor 1 (Homo sapiens, UniProt O14727).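 Further: caspase-3 cleavage of fluorogenic Rh110 DEVD substrate downstream of apoptosome activation.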
T5 sequence (O14727 whole entry): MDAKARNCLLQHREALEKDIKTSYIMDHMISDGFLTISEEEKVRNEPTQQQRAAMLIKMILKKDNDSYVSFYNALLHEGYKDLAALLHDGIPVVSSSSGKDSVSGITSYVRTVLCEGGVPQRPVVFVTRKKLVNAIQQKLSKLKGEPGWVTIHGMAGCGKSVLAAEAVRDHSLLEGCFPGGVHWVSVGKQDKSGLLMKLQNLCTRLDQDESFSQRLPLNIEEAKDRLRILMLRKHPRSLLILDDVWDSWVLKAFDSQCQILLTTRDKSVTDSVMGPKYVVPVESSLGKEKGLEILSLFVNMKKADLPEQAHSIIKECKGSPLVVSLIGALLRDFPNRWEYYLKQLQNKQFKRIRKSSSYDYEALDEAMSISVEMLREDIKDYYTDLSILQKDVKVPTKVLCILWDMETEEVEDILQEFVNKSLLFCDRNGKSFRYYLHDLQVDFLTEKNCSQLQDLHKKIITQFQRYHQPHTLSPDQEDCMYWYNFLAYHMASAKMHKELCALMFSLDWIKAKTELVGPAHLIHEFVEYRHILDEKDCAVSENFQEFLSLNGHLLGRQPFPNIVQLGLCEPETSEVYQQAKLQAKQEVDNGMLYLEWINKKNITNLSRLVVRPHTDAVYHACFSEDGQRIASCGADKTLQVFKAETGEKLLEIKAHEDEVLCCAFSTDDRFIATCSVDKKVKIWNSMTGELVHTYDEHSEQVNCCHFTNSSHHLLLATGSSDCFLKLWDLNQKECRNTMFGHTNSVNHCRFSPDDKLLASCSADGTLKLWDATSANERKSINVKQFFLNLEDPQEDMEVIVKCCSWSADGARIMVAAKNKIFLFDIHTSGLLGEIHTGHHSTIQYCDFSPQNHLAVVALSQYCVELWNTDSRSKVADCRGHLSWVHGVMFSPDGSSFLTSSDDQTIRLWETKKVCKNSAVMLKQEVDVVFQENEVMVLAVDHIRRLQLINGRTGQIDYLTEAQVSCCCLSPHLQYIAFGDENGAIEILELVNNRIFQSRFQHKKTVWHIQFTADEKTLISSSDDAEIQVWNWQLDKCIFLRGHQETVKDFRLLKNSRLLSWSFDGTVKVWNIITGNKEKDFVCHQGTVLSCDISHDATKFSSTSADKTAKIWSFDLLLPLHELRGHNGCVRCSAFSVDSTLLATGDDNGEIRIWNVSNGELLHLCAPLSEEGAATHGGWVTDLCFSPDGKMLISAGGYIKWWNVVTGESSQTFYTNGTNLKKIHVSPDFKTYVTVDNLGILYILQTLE
Nature of the test: SAR analysis of small molecule Activators of Apaf-1 in a Fluorescent assay. The format is functional. The conditions noted are these: read-out: EC50_Mean.

T3 sequence (Q79MP6 whole entry): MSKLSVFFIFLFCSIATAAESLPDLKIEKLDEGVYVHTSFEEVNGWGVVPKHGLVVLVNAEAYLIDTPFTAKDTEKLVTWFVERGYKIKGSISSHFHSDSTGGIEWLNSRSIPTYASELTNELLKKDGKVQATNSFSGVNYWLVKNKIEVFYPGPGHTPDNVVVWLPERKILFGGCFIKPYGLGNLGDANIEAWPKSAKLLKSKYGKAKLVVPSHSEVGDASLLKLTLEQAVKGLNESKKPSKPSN
Chain of SWI/SNF-related matrix-associated actin-dependent regulator of chromatin subfamily A member 2 (P51531 whole entry): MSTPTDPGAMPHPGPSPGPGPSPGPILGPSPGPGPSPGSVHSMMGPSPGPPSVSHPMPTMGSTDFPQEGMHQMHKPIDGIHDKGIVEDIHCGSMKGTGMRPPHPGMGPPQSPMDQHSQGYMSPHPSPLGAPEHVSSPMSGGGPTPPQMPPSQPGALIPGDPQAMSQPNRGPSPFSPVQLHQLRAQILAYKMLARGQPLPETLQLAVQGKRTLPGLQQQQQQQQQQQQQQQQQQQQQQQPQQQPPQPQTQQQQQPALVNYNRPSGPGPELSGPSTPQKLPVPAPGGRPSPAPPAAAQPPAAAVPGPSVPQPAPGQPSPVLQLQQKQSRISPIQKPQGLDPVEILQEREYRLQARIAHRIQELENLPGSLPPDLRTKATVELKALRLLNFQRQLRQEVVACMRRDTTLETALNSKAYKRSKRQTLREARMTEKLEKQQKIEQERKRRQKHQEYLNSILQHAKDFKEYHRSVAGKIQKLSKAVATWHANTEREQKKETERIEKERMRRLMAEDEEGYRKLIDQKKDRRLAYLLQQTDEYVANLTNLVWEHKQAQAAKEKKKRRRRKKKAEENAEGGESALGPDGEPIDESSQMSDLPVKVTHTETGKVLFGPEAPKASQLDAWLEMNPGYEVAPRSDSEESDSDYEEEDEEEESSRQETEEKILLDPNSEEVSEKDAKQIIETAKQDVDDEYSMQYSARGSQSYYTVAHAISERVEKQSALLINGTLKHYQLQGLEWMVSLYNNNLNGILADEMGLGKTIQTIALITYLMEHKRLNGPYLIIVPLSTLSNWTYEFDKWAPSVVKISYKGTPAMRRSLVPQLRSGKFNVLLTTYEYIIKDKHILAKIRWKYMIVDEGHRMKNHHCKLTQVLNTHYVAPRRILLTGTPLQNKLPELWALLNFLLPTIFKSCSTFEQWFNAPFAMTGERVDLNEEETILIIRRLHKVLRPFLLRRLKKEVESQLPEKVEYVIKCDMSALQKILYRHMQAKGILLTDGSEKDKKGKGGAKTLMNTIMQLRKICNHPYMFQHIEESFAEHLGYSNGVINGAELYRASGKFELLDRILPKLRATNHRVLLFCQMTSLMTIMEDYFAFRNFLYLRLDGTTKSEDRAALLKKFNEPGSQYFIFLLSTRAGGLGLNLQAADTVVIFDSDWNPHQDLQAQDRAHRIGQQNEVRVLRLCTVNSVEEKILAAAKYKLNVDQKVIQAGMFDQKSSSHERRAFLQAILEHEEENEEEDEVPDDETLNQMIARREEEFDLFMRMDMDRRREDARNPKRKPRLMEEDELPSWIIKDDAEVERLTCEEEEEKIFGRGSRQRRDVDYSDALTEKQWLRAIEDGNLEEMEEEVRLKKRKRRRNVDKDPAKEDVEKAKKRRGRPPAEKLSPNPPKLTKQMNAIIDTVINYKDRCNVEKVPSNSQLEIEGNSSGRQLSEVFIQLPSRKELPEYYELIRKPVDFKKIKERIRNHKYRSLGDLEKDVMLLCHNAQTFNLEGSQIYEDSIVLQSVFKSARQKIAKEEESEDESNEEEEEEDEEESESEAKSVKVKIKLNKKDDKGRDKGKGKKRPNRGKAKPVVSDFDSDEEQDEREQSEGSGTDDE
Chain of Beta-lactamase (Salmonella choleraesuis (strain SC-B67), UniProt Q5J463) (Q5J463 whole entry): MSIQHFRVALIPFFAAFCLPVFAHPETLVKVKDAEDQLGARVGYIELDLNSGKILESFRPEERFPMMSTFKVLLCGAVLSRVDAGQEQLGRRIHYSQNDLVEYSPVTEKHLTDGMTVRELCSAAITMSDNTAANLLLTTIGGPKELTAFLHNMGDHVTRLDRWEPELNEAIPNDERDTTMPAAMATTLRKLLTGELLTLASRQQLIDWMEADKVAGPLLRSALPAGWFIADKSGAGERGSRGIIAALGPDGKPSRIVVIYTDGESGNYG

Regarding `CCOc1ccc(Oc2c(N3CCCC3)c(Br)nn(Cc3cccc4ccccc34)c2=O)cc1`, the IC50 in test [1] and in test [2] was > 20 µM (inactive) throughout.
As for `COc1cc2nc(N(C)C)nc(N)c2cc1OC`, the EC50 in [3] was 6.08 µM (active); in [4] it was > 60 µM (not active); in test [5] it was > 91.2 µM (inactive); in test [7], 37 µM (inactive). For the same compound, the AC50 in [6] was 12.5 µM (active).
On to `C[C@@H]1CN([C@@H](C)CO)C(=O)c2cc(C#CC3CCCCC3)cnc2O[C@H]1CN(C)S(=O)(=O)c1cccc(F)c1`, for which the AC50 in test [8] is 13.9 µM (active); in test [9], 24.6 µM (active).
On to `CCc1nnc(S)n1/N=C/C(C)=C\c1ccccc1`, for which the IC50 on Beta Lactamase [10] is 0.332 µM (active); on Beta-lactamase [11], > 59.6 µM (inactive); at Beta-lactamase [12], > 59.6 µM (inactive); on Beta-lactamase [13], > 59.6 µM (inactive); on Beta Lactamase [14], 1.23 µM (active).
In the case of `Cc1c(NC(=O)C2CC(c3ccc(F)cc3)=NO2)c(=O)n(-c2ccccc2)n1C` (stereo not drawn), the EC50 in test [15] was > 195 µM (not active); in [16], > 100 µM (inactive).
Turning to `Cc1ccc(C(C#N)c2c(Cl)cnn(Cc3cccc4ccccc34)c2=O)cc1` (stereo not drawn), the IC50 was 1.24 µM (active) in test [1] and 0.381 µM (active) in [2].

In general, IC50 refers to the concentration that inhibits the measured activity by half. A word on the AC50: it is the midpoint of the concentration-response curve, whichever way the signal moves.
